Assays:
Menin/MLL = molecular target: T1, Menin/MLL (Homo sapiens, UniProt O00255, T541A); assay: Menin/MLL homogenous time-resolved fluorescence (HTRF) assay; assay type: binding; conditions: 30 min incubation of test compound with terbium chelate-labeled menin; FITC-MBM1 peptide
T1 construct: Menin (a.a 1-610-6xhis tag)
T1 sequence (O00255 with tags, fused parts or gaps T541A): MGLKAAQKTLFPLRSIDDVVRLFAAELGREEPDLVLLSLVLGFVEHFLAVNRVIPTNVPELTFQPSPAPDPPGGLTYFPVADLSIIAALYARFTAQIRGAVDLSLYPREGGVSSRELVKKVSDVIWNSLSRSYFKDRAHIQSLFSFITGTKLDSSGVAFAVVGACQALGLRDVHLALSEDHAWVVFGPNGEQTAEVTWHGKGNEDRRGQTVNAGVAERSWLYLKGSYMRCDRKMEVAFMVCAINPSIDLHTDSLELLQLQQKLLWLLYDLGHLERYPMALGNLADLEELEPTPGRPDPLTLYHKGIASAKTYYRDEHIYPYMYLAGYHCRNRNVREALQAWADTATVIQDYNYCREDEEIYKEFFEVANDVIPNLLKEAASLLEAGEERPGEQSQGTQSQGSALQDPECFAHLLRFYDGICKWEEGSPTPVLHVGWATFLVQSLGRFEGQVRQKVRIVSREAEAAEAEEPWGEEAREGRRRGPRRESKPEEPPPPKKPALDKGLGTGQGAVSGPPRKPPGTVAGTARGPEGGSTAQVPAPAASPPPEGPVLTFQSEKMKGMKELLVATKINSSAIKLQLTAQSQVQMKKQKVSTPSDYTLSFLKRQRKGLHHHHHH
Experimental: 1) Menin/MLL homogenous time-resolved fluorescence (HTRF) assay
To an untreated, white 384-well microtiter plate was added 40 nL 200X test compound in DMSO and 4 μL 2X terbium chelate-labeled menin (vide infra for preparation) in assay buffer (40 mM Tris-HCl, pH 7.5, 50 mM NaCl, 1 mM DTT (dithiothreitol) and 0.05% Pluronic F-127). After incubation of test compound and terbium chelate-labeled menin for 30 min at ambient temperature, 4 μL 2X FITC-MBM1 peptide (FITC-β-alanine-SARWRFPARPGT-NH2 (SEQ ID NO: 2)) (“FITC” means fluorescein isothiocyanate) in assay buffer was added, the microtiter plate centrifuged at 1000 rpm for 1 min and the assay mixtures incubated for 15 min at ambient temperature. The relative amount of menin FITC--MBM1 complex present in an assay mixture is determined by measuring the homogenous time-resolved fluorescence (HTRF) of the terbium/FITC donor/acceptor fluorphore pair using an EnVision microplate reader (ex. 337 nm/terbium em. 490 nm/FITC em. 520 nm) at ambient temperature. The degree of fluorescence resonance energy transfer (the HTRF value) is expressed as the ratio of the fluorescence emission intensities of the FITC and terbium fluorophores (F^em 520 nm/F^em 490 nm). The final concentrations of reagents in the binding assay are 200 pM terbium chelate-labeled menin, 75 nM FITC-MBM1 peptide and 0.5% DMSO in assay buffer. Dose-response titrations of test compounds are conducted using an 11 point, four-fold serial dilution scheme, starting typically at 10 μM.
Compound potencies were determined by first calculating % inhibition at each compound concentration according to equation 1: […]
Where LC and HC are the HTRF values of the assay in the presence or absence of a saturating concentration of a compound that competes with FITC-MBM1 for binding to menin, and HTRF^compound is the measured HTRF value in the presence of the test compound. HC and LC HTRF values represent an average of at least 10 replicates per plate.
Where Bottom and Top are the lower and upper asymptotes of the dose-response curve, respectively, IC50 is the concentration of compound that yields 50% inhibition of signal and h is the Hill coefficient. IC50 values below 0.1 nM in the HTRF assay were reported as 0.1 nM in the Table below (detection limit).
Preparation of Terbium cryptate labeling of Menin: Menin (a.a 1-610-6xhis tag, 2.3 mg/mL in 20 mM Hepes (2-[4-(2-Hydroxyethyl)-1-piperazinyl]ethane sulfonic acid), 80 mM NaCl, 5 mM DTT (Dithiothreitol), pH 7.5) was labeled with terbium cryptate as follows. 200 μg of Menin was buffer exchanged into lx Hepes buffer. 6.67 μM Menin was incubated with 8-fold molar excess NHS (N-hydroxysuccinimide)-terbium cryptate for 40 minutes at room temperature. Half of the labeled protein was purified away from free label by running the reaction over a NAP5 column with elution buffer (0.1M Hepes, pH 7+0.1% BSA (bovine serum albumin)). The other half was eluted with 0.1 M phosphate buffered saline (PBS), pH7. 400 μl of eluent was collected for each, aliquoted and frozen at −80° C. The final concentration of terbium-labeled Menin protein was 115 μg/mL in Hepes buffer and 85 μg/mL in PBS buffer, respectively.

MOLM14 cells = assay: Proliferation assay (spheroid assay) in MOLM14; assay type: cell-based; conditions: Homo sapiens, MOLM-14, 192 h; MOLM14 (MLL-AF9), 8 days, confluence as measure of spheroid size; read-out: spheroid assay_OneTime MOLM14 IC50
Experimental: (§1) The anti-proliferative effect of menin/MLL protein/protein interaction inhibitor test compounds was assessed in human leukemia cell lines. The cell line MOLM14 harbors a MLL translocation and expresses the MLL fusion proteins MLL-AF9, respectively, as well as the wildtype protein from the second allele. […] KO-52 was used as a control cell line containing two MLL (KMT2A) wildtype alleles in order to exclude compounds that display general cytotoxic effects.
MOLM14 cells were cultured in RPMI-1640 (Sigma Aldrich) supplemented with 10% heat-inactivated fetal bovine serum (HyClone), 2 mM L-glutamine (Sigma Aldrich) and 50 µg/ml gentamycin (Gibco). KO-52 cell lines were propagated in alpha-MEM (Sigma Aldrich) supplemented with 20% heat-inactivated fetal bovine serum (HyClone), 2 mM L-glutamine (Sigma Aldrich) and 50 µg/ml gentamycin (Gibco).
In order to assess the anti-proliferative effects, 200 MOLM14 cells, or 300 KO-52 cells were seeded in 200 μl media per well in 96-well round bottom, ultra-low attachment plates (Costar, catalogue number 7007). Cell seeding numbers were chosen based on growth curves to ensure linear growth throughout the experiment. Test compounds were added at different concentrations and the DMSO content was normalized to 0.3%. Cells were incubated for 8 days at 37° C. and 5% CO2. Spheroid like growth was measured in real-time by live-cell imaging (IncuCyteZOOM, Essenbio, 4× objective) acquiring images at day 8. Confluence (%) as a measure of spheroid size was determined using an integrated analysis tool.
In order to determine the effect of the test compounds over time, the confluence in each well as a measure of spheroid size, was calculated. Confluence of the highest dose of a reference compound was used as baseline for the LC (Low control) and the confluence of DMSO treated cells was used as 0% cytotoxicity (High Control, HC).
Absolute IC50 values were calculated as percent change in confluence as follows:
LC=Low Control: cells treated with e.g. 1 μM of the cytotoxic agent staurosporin, or e.g. cells treated with a high concentration of an alternative reference compound
GraphPad Prism (version 7.00) was used to calculate the IC50. Dose-response equation was used for the plot of % Effect vs Log10 compound concentration with a variable slope and fixing the maximum to 100% and the minimum to 0%.

KO-52 cells = assay: Proliferation assay (spheroid assay) in KO-52 control cell line; assay type: cell-based; conditions: Homo sapiens, 192 h; KO-52 (MLL wildtype control), 8 days, confluence as measure of spheroid size; read-out: spheroid assay_OneTime KO-52 IC50
Experimental: as §1
MOLM14 cells were cultured in RPMI-1640 (Sigma Aldrich) supplemented with 10% heat-inactivated fetal bovine serum (HyClone), 2 mM L-glutamine (Sigma Aldrich) and 50 µg/ml gentamycin (Gibco). […]
In order to assess the anti-proliferative effects, 200 MOLM14 cells, or 300 KO-52 cells were seeded in 200 μl media per well in 96-well round bottom, ultra-low attachment plates (Costar, catalogue number 7007). […] Spheroid like growth was measured in real-time by live-cell imaging (IncuCyteZOOM, Essenbio, 4× objective) acquiring images at day 8. Confluence (%) as a measure of spheroid size was determined using an integrated analysis tool.
In order to determine the effect of the test compounds over time, the confluence in each well as a measure of spheroid size, was calculated. […]
Absolute IC50 values were calculated as percent change in confluence as follows: […]

IC50 (Menin/MLL): 0.376 nM | IC50 (MOLM14 cells): 20 nM
SMILES: CCN(C(=O)c1cc(F)ccc1Oc1nncnc1N1CCC2(C1)CN(C(CCCN(C)CCOC(F)(F)F)C(C)C)C2)C(C)C (single isomer, unassigned) [Compound 2]
IC50 (KO-52 cells): 14.6 µM
